Reference: patent publication US20200290950A1, “ALKAMIDE COMPOUNDS AND USES THEREOF” (NORTH CAROLINA STATE UNIVERSITY, priority 2017, published 2020)

Tests used:
RBL-2H3 cells [1] = assay: Fluo-4 calcium assay, RBL-2H3 cells (Example 1); format: cell-based, rat; details: RBL-2H3 cells, 1 μM A23187, microscopy, n=5 fields
Protocol: FIGS. 3A-3H. A15 inhibits calcium influx in RBL-2H3 cells and BMMCs. RBL-2H3 cells (FIGS. 3A-3D) and BMMCs (FIGS. 3E-3H) were plated and incubated overnight prior to treatments. For DNP-BSA treatments, overnight incubation also included 1 μg/mL IgE anti-DNP. Prior to stimulation, cells were washed and loaded with the fluorescent, calcium-sensitive dye fluo-4 AM using the Fluo-4 AM Direct™ Calcium Assay Kit and fluorescence was measured on a microplate reader. Calcium influx was triggered in all experiments using either 1 μM A23187 or 50 ng/mL DNP-BSA, as indicated. Bar graphs represent the means±SEM of the Δ in RFU's at 1 min post-A23187- or DNP-BSA-stimulation from 3 independent experiments (FIGS. 3B, 3D, 3F, 3H). Statistical analysis was performed using a one-way ANOVA with Dunnett's post-hoc test, *p<0.05, **p<0.01, ***p<0.001.
FIG. 9. A15 inhibits calcium influx in RBL-2H3 cells. Prior to stimulation, cells were washed and loaded with the fluorescent, calcium-sensitive dye fluo-4 AM using the Fluo-4 AM Direct™ Calcium Assay Kit. Cells were treated with 100 μM A15 (D, E, F), 0.25% ethanol only (vehicle) (A, B, C), 1 μM A23187 (G, H, I), and 100 μM A15 in combination with 1 μM A23187 (J, K, L) as indicated. Images were acquired at 30, 60, and 120 seconds, post-stimulation. Images are representative of several experiments.
RBL-2H3, BMMC, RAW 264.7, or Jurkat cells were plated in clear-bottom, black, 96-well plates (BioExpress, Kaysville, Utah) and incubated overnight with media only or media containing IgE anti-DNP. Cells were loaded with the calcium-sensitive dye fluo-4 AM using the Fluo-4 Direct™ Calcium Assay Kit (Thermo Fisher Scientific) according to the manufacturer's instructions by incubating at 37° C. for 30 min followed by 30 min at room temperature. Prior to stimulation, baseline fluorescent readings were measured from triplicate wells in 5 s intervals for 1 min using a Synergy HT microplate reader with 485/20 nm excitation and 528/20 nm emission filters. Cells were then treated with either 1 μM A23187 or 50 ng/mL DNP-BSA prepared in calcium- and magnesium-containing or calcium- and magnesium-free HBSS with 20 mM HEPES, and fluorescence was measured in 10 s intervals for 2 min. The final concentration of ethanol was 0.25% in these assays. The average baseline fluorescence of each well was subtracted from the stimulated fluorescent values to calculate the change (Δ) in RFU's and graphed as shown.
Cells loaded with fluo-4 were treated and observed with an Axioskop 2 microscope (Zeiss, Oberkochen, Germany) using a fluorescent illuminator HXP-120 light source and images were acquired at 30, 60, or 120 sec after stimulation with a AxioCam MRc5 camera (Zeiss) and AxioVision software (Zeiss).

RBL-2H3 cells [2] = assay: TNF-α ELISA, 18 hrs (Example 3); format: cell-based, rat; details: 1 μM A23187, 18 hours
Protocol: FIGS. 25A-25B. […] RBL-2H3 cells were plated overnight and stimulated with 1 μM A23187 in the absence or presence of each alkamide for 18 h. Culture supernatants were analyzed for TNF-α levels by ELISA and experiments were performed in triplicate (FIG. 25A). Percent inhibition of TNF-α secretion for each alkamide listed in FIG. 25B. *P<0.05, **P<0.01, ***P<0.001, one-way ANOVA with Dunnett's post hoc test compared to vehicle (FIG. 25A) or A15 (FIG. 25B).
RBL-2H3 cells (1.0×10^5 cells) were incubated overnight in a 24 well plate at 37° C. with 5% CO2. Cells were washed with 1×PBS and stimulated with 1 μM A23187 for 18 hrs in the absence or presence of each compound. The cells were centrifuged (1200×g, 5 min) and the supernatants were collected. The concentration of TNF-α in the supernatants were determined using the TNF-α ELISA kit.

RAW 264.7 cells = details: LPS-stimulated RAW 264.7 cells, literature; cited from earlier work
RBL-2H3 cells [3] = assay: β-Hexosaminidase release assay (Example 3); format: cell-based, rat
Protocol: FIGS. 21A-21D. The inhibition of degranulation is dependent on the length of the alkamide fatty acid chain. RBL-2H3 cells were plated overnight, stimulated with 1 μM A23187 (FIG. 21A) or 5 ng/mL DNP-BSA (FIG. 21B) for 1 h in the absence or presence of each compound. Graphs display the mean percent β-hex release. Data are presented as the mean of 4 experiments. Percent inhibition of degranulation of A23187 (FIG. 21C) or DNP-BSA (FIG. 21D) using data from A and B, respectively. *P<0.05, **P<0.01, ***P<0.001, one-way ANOVA with Dunnett's post hoc test compared to vehicle (A, B) or A15 (C, D).
RBL-2H3 cells (1.0×10^5 cells) were incubated with or without 0.1 μg/mL of IgE-DNP overnight in a 96 well plate at 37° C. with 5% CO2. The cells were washed with Tyrode's buffer and assayed with few modifications (Kuehn, Radinger, & Gilfillan, 2010). Briefly, IgE-DNP sensitized cells were stimulated 1 hour with 5 ng/mL of DNP-BSA in the absence or presence of each compound and incubated at 37° C. with 5% CO2. For experiments using only A23187 as the stimulant, cells were washed with Tyrode's buffer and stimulated 1 hour with 1 μM A23187 in the absence or presence of each compound and incubated at 37° C. with 5% CO2. The stimulated cells were centrifuged at 1200×g for 5 minutes. The supernatant or cell lysate (30 μL) was incubated with 3.4 mg/mL of p-NAG (10 μL) for 1 hour at 37° C. The reaction was terminated by addition of 0.2 M sodium carbonate (pH 10) and the absorbance was read at OD405 nm on a BioTek Synergy HT microplate reader. The total 3-hexosaminidase released from the cell was calculated as the difference between the OD of the supernatant and blank plus the difference between the OD of the lysate and blank. The percent β-hexosaminidase released from the cell was calculated as the difference between the OD of the supernatant and blank divided by the total β-hexosaminidase released from the cell multiplied by 100: ODsupernatant−ODblank/[(ODlysate−ODblank)+(ODsupernatant−ODblank)]*100.

RBL-2H3 cells [4] = assay: Calcium assay, Fluo-4 (Example 3); format: cell-based, rat
Protocol: FIGS. 22A-22D. The alkamide fatty acid is necessary for inhibition of calcium influx. RBL-2H3 cells were plated overnight, incubated with Fluo-4 AM for 1 h, stimulated by 1 μM A23187 (FIG. 22A) or 5 ng/mL DNP-BSA (FIG. 22B) in the absence or presence of each alkamide, and fluorescence was read for 2 mins every 5 secs. Data are presented as the mean change in RFU of 4 experiments. Percent inhibition of calcium influx was calculated for A23187 (FIG. 22C) and DNP-BSA (FIG. 22D) stimulated cells at 2 mins. *P<0.05, **P<0.01, and ***P<0.001 one-way ANOVA with Dunnett's post hoc test compared to A15.
RBL-2H3 cells (1.0×10^5 cells) were incubated overnight in a 96 well black-wall clear bottom plate with or without IgE-DNP (0.1 μg/mL) at 37° C. with 5% CO2. The assay was performed using the Fluo-4 Direct™ Calcium Assay Kit according to the manufacturer's instruction. Briefly, cells were incubated with the Fluo-4 Direct calcium reagent loading solution for 30 minutes at 37° C. with 5% CO2 then 30 mins at room temperature. Prior to stimulation, the well baseline fluorescence was measured every 5 seconds over 1 minute using a BioTek Synergy HT microplate reader with 485/20 nm excitation and 528/20 nm emission filters. Cells were stimulated with 1 μM A23187 or 5 ng/mL DNP (IgE-DNP) in the absence or presence of each compound, and the fluorescence was measured every 5 seconds over 2 minutes. The change in fluorescence (ΔRT) was calculated as the sample fluorescence minus the baseline fluorescence for each well.

[5] = molecular target: cannabinoid type 2 receptor (CB2) (Homo sapiens, UniProt P34972); details: Raduner et al., 2006; cited from earlier work
Chain of cannabinoid type 2 receptor (CB2) (P34972 whole entry, species assumed): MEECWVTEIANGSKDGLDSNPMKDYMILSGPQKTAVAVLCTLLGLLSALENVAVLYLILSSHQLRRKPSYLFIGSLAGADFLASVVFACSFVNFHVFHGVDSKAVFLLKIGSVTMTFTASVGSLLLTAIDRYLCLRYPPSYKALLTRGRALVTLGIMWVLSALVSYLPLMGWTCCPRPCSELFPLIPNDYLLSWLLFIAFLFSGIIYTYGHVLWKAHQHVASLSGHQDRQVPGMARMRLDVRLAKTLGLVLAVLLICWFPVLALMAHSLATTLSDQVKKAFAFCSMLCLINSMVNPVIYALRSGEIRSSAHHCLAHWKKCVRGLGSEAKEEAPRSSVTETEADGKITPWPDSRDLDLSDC

CNc1ccc2oc(C[C@H]3O[C@@]4(CC[C@H]3C)O[C@H]([C@H](C)C(=O)c3ccc[nH]3)[C@H](C)C[C@H]4C)nc2c1C(=O)O [A23187, reference compound]
increase in fluorescence (pixel intensity) (RBL-2H3 cells [1]): 158.4%

CCCCCCCCCCCC(=O)NCC(C)C [YM5-27, N-Isobutyldodecanamide]
percent inhibition of TNF-α secretion (RBL-2H3 cells [2]): 76% | TNF-α production (RAW 264.7 cells): best inhibitors | percent inhibition of degranulation (RBL-2H3 cells [3]; 5 ng/mL DNP-BSA, 1 hour): 33% | percent inhibition of degranulation (RBL-2H3 cells [3]; 1 μM A23187, 1 hour): 40% | percent inhibition of calcium influx (RBL-2H3 cells [4]; 5 ng/mL DNP-BSA, at 2 minutes): 65% | percent inhibition of calcium influx (RBL-2H3 cells [4]; 1 μM A23187, at 2 minutes): 79%

CCCCCCCCCC(=O)NCC(C)C [YM8-86, N-Isobutyldecanamide]
percent inhibition of TNF-α secretion (RBL-2H3 cells [2]): 50% | percent inhibition of degranulation (RBL-2H3 cells [3]; 5 ng/mL DNP-BSA, 1 hour): 46% | percent inhibition of degranulation (RBL-2H3 cells [3]; 1 μM A23187, 1 hour): 59% | percent inhibition of calcium influx (RBL-2H3 cells [4]; 5 ng/mL DNP-BSA, at 2 minutes): 40% | percent inhibition of calcium influx (RBL-2H3 cells [4]; 1 μM A23187, at 2 minutes): 92%

CCN(CC)CCCCCCCCOC(=O)c1cc(OC)c(OC)c(OC)c1 [TMB-8, 3,4,5-trimethoxybenzoic acid 8-(diethylamino) octyl ester, reference compound]
β-hex release (RBL-2H3 cells [3]; 5 ng/mL DNP-BSA, 1 h): also inhibited | β-hex release (RBL-2H3 cells [3]; 1 μM A23187, 1 h): significantly inhibited β-hex release | calcium response (Fluo-4 fluorescence over 2 min) (RBL-2H3 cells [4]; 5 ng/mL DNP-BSA): decreased rate of calcium entering the cytosol | calcium response (Fluo-4 fluorescence over 2 min) (RBL-2H3 cells [4]; 1 μM A23187): decreased rate of calcium entering the cytosol

CCCC(=O)NCC(C)C [YM8-87, N-Isobutylbutyramide]
percent inhibition of degranulation (RBL-2H3 cells [3]; 5 ng/mL DNP-BSA, 1 hour): 12% | percent inhibition of degranulation (RBL-2H3 cells [3]; 1 μM A23187, 1 hour): 11% | rank as inhibitor of calcium influx (RBL-2H3 cells [4]; A23187 and DNP-BSA stimulation): least effective inhibitor of calcium influx

CCCCCC(=O)NCC(C)C [YM5-47, N-Isobutylhexanamide]
percent inhibition of TNF-α secretion (RBL-2H3 cells [2]): 47% | percent inhibition of degranulation (RBL-2H3 cells [3]; 5 ng/mL DNP-BSA, 1 hour): 36% | percent inhibition of degranulation (RBL-2H3 cells [3]; 1 μM A23187, 1 hour): 51% | percent inhibition of calcium influx (RBL-2H3 cells [4]; 5 ng/mL DNP-BSA, at 2 minutes): 38%

C/C=C\C=C/CC/C=C/C=C/C(=O)NCC(C)C [A11a/b, dodeca-2E,4E,8Z,10Z(E)-tetraenoic acid isobutylamide, reference compound]
binding to CB2 [5]: shown to bind | TNF-α production (RAW 264.7 cells): reduced TNF-α production
